Data set [1] deals with T1, renin (Homo sapiens, UniProt P00797).
T1 construct: purchased BPS Bioscience 80211
T1 sequence (P00797 67-406): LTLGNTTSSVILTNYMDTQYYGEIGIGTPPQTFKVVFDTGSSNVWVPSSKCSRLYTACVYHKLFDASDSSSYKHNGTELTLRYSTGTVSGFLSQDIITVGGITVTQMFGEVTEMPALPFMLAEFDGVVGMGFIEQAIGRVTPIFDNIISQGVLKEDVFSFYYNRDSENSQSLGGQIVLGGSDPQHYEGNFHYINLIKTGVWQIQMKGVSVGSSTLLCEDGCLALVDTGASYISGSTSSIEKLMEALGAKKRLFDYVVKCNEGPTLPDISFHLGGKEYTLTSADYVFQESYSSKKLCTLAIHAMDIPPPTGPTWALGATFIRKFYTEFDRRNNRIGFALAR
Description: Human protease off-target assay, commercial kit. It counts as biochemical. As to conditions: 11.1 µM compound. On the procedure: (§1) These assays were done exactly as we described earlier. In brief, commercial kits were used for all four human proteases as follows: Cathepsin B (BPS Bioscience, #79590), Renin (BPS Bioscience, #80211), Thrombin (Sigma-Aldrich, #MAK243), and MMP-1 (Biovision, #K794-100). All assays were run in kinetic mode and at RT, except MMP-1, which was run at 37 °C. Positive controls were used for all assays, i.e., E64 for Cathepsin B, Aliskiren for Renin, CDD-1472 for Thrombin, and GM 6001 for MMP-1. Activities were obtained from linear initial progress curves, and fractional activities were calculated from reactions with no inhibitors[17],[19],[34].
(§2) Supplementary Figure 4. Potential off-target inhibition of major proteases, i.e. thrombin (a serine protease), cathepsin B (a cysteine protease like Mpro), renin (an
(§3) control inhibitors as indicated. S9 […]

For data set [2], the target named is T2, matrix metallopeptidase-1 (MMP-1) (Homo sapiens, UniProt P03956).
T2 construct: purchased Biovision K794-100
T2 sequence (P03956 100-469): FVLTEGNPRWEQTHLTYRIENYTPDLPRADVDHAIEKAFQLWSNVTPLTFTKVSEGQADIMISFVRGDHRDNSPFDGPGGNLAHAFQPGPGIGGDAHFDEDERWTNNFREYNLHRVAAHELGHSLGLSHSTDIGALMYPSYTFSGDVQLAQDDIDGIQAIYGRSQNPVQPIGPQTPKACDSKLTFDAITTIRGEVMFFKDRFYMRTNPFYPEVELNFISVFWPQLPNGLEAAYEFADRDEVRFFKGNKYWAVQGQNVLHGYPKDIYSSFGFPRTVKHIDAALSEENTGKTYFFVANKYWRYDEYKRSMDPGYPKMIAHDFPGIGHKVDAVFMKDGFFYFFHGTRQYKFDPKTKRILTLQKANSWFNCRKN
Description: Human protease off-target assay, commercial kit. It counts as biochemical. As to conditions: 10 µM compound, 37 °C. On the procedure:
as §1, §2, §3

Data set [3] deals with T3, thrombin (Homo sapiens, UniProt P00734).
T3 construct: purchased Sigma-Aldrich MAK243
Description: Human protease off-target assay, commercial kit. It counts as biochemical. As to conditions: 10 µM compound. On the procedure: as §1, §2, §3

Data set [4] deals with T4, cathepsin B (Homo sapiens, UniProt P07858).
T4 construct: purchased BPS Bioscience 79590
The data set is described as follows: Human protease off-target assay, commercial kit. The class given is biochemical. The settings on record: 10 µM compound. How it is done: as §1, §2, §3

For data set [5], the system named is HepG2 cells.
The format of data set [6] is in vitro ADME, mouse. The settings on record: 10 μM. On the procedure: (§4) At time points of 0, 30, 60, and 120 min, 15 μL of the samples were taken out, and the reactions were terminated by adding 75 μL of ice-cold methanol. The reaction mixtures were then vortexed for 30 s and centrifuged at 15,000 rcf for 15 min. […] The percentage of test compound remaining at the individual time points was normalized by the 0-min.
(§5) 10 µM in duplicate (n=2) at 37 °C. The reactions were terminated at time points of 0, 30, 60 and 120 min by adding ice-cold methanol. Following centrifugation, the supernatant was analyzed using UHPLC-Q E xa ct ive Orbitrap MS. The percentage of test compound remaining at the individual time points relative to the 0 min sample was determined S12

The test system of data set [7] is HepG2 cells. The data set is described as follows: cells. The settings on record: Homo sapiens, HepG2, 24 h, read-out: IC50 (HepG2 cell viability).
For data set [8], the system named is HepG2 cells. It counts as in vitro ADME. As to conditions: 10 μM, 2 h. On the procedure:
The plate was incubated at 37 °C for another 2 h, and the medium in the plate was then decanted. The cells were rinsed with 1 mL of 1× DPBS three times, trypsinized at 37 °C for 3.5 min, centrifuged, and the cell pellets from each well were reconstituted in 500 μL of MeOH/H2O (vol/vol 1/1). […] The mixtures were centrifuged at 15,000 rcf for 15 min. Three microliters of the supernatant were injected into UHPLC-Q Exactive Orbitrap MS (Thermo Fisher Scientific) equipped with a 50 × 4.6-mm column (XDB C-18; Agilent Technologies) for analysis. The column temperature was set at 40 °C. The mobile phase system was (A) water (containing 0.1% formic acid) and (B) acetonitrile (containing 0.1% formic acid), with a flow rate of 0.3 mL/min. The gradient elution program was set as follows: 0 to 0.25 min, 40% B; 0.25 to 1.5 min, 40 to 98% B; 1.5 to 3.5 min, 98% B; 3.5 to 3.8 min, 98 to 40% B; 3.8 to 5 min, 40% B. Ultrapure nitrogen was used as the sheath (45 arbitrary units), auxiliary (10 arbitrary units), and sweep (1.0 arbitrary unit) gas. The capillary and auxiliary gas temperatures were 275 °C and 380 °C, respectively. The spray voltage was 3.75 kV. […]
were expressed as the intracellular concentrations (peak areas) of these compounds. […]
and homogenized. The intracellular concentrations were measured with UHPLC-Q E xa ct ive Orbitrap MS. ND stands for “not detected”.

The format of data set [9] is in vitro ADME, human. As to conditions: 10 μM. On the procedure:
as §4, §5

Data set [10] is described as follows: in vivo. The settings on record: 50 mg/kg; for half-life: plasma; for CL/F: mice, per oral gavage (po.), n=4, mean ± SD. How it is done:
The whole blood samples were centrifuged at rcf 2000 for 5 min for the plasma separation of plasma. The plasma samples were stored at −80 °C before analysis. All the samples were analyzed with a Q Exactive orbitrap MS coupled with UHPLC (Thermo Fisher Scientific, San Jose, CA). LC-Q Exactive MS was operated in the same parameters used in the cell uptake assay above. The concentration of these compounds in plasma was quantified using individual calibration curves.
PK parameters such as half-time (T1/2), area under the plasma concentration–time curve during the period of observation (AUC0–t), area under the plasma concentration–time curve from zero to infinity (AUC0–∞), clearance normalized by the bioavailability (CL/F), and the mean residence time (MRT) were calculated by WinNonlin software (Certara, Princeton, NJ) by noncompartmental analysis. The plasma concentration–time curves were plotted in Prism 7 (GraphPad, San Diego, CA) as mean ± S.D.
Mouse PK of CDD compounds, 50 mg/kg
samples we re collected at 0, 5, 10, 15, 30 m in , 1, 2, 4, 6 and 8 h af ter dosing. P la sm a samples we re separated, prepared and analyzed wit h LC-MS. The compound
± SD (n=4). Tmax, time to rea ch the m a ximum pla sma concentration. Cm ax, maximum p las m a concentration. T1/2, half-lif e . AUC, area under the cu rve . CL, clea ran ce . F,
bioavailability. M R T, mean residence time.

Data set [11] can be described thus: in vitro. The settings on record: human.
For data set [12], the system named is M^pro variant ΔP168/A173V. As to conditions: previously shown; cited from earlier work.
The subject of data set [13] is M^pro variant A173V. As to conditions: previously shown; cited from earlier work.

Where two headings read alike, the source gives them in different places.

As to `CCC[C@H](NC(=O)c1cccc2nc(-c3cncc4ccccc34)n([C@H]3C[C@H](C(=O)NC)C3)c12)c1ccc(C(F)(F)F)cc1` [CDD-1733], the “inhibition of enzymatic activity” value in [1], in data set [2], in [3] and in data set [4] was “None of these inhibitors blocked the enzymatic activity” throughout. For the same molecule, in [5] (HepG2 cells), the cytotoxicity entry is recorded as “no obvious cytotoxicity”. Also, the “compound remaining in plasma” value is listed as 80% in data set [6] (mouse plasma, 37 °C, after 2 h incubation) and 80% in [9] (human plasma, 37 °C, after 2 h incubation). In data set [7], the IC50 was over 100 µM. The “cell uptake (permeability)” value in data set [8] is “good permeability”.
Take `CNC(=O)[C@H]1C[C@H](n2c(-c3cncc4ccccc34)nc3cccc(C(=O)N[C@@H](C)c4ccc5ccccc5c4)c32)C1` [CDD-1819]: the MRT inf in [10] (male, mouse, in vivo, po) is 1.42 ± 0.16 h. The MRT last in data set [10] (male, mouse, in vivo, po) was 1.31 ± 0.12 h. The Tmax in data set [10] (male, mouse, in vivo, po) came out at 0.33 ± 0.14 h. Moreover, the half-life in data set [10] (male, mouse, oral) is 1.2 ± 0.1 h. In addition, the CL/F in data set [10] was 7.26 ± 1.81 mg/ ( hr*µmol/L)/kg. In data set [11], this molecule registered a viability at 24 h, 100 µM of over 80%. In addition, the “inhibition of enzymatic activity” value in [1], in data set [2], in data set [3] and in data set [4] was “None of these inhibitors blocked the enzymatic activity” throughout. For the same molecule, the cytotoxicity entry in data set [5] is listed as “no obvious cytotoxicity”. Further, the “compound remaining in plasma” value in [6] (mouse, plasma, 2 h) came to 80%; in [9] (human, plasma, 2 h) it was 80%. The IC50 in data set [7] was over 100 µM.
Regarding `CNC(=O)CCCn1c(-c2cncc3ccccc23)nc2cccc(C(=O)N[C@@H](C)c3ccc4ccccc4c3)c21` [CDD-1845], the AUC(0-inf) in [10] (male, mouse, in vivo, po) is 14.9 ± 7.85 µM·h. In [10] (male, mouse, in vivo, po), the AUC(0-t) is 14.9 ± 7.79 µM·h. In data set [10] (male, mouse, in vivo, po), the Cmax was found to be 8.93 ± 4.55 µM. In data set [10] (male, mouse, in vivo, po), this molecule yielded an MRT inf of 1.25 ± 0.02 h. In [10] (male, mouse, in vivo, po), this molecule came in with an MRT last of 1.22 ± 0.03 h. In addition, in data set [10] (male, mouse, in vivo, po), the Tmax is 0.33 ± 0.14 h. In addition, the half-life in data set [10] (male, mouse, oral) is 1.1 ± 0.3 h; in data set [10] (male, mouse, po), 1.14 ± 0.32 h. For the same molecule, in [10], the CL/F is recorded as 4.02 ± 1.98 mg/ ( hr*µmol/L)/kg. This molecule also came in with a viability at 24 h, 100 µM in [11] of over 80%. Also, the “inhibition of enzymatic activity” value in [1], in data set [2], in data set [3] and in [4] was “None of these inhibitors blocked the enzymatic activity” each time. The cytotoxicity entry in data set [5] is recorded as “no obvious cytotoxicity”. The “compound remaining in plasma” value was determined as 80% in [6] (mouse, plasma, 2 h) and 80% in [9] (human, plasma, 2 h). Also, the IC50 in [7] is over 100 µM.
For `CC(C)(C)[C@H](NC(=O)C(F)(F)F)C(=O)N1C[C@H]2[C@@H]([C@H]1C(=O)N[C@H](C#N)C[C@@H]1CCNC1=O)C2(C)C` [Nirmatrelvir, nirmatrelvir], the “increase in Ki relative to WT” value is 600 fold in [12] and 50 fold in data set [13].

Broadly, the IC50 is the concentration needed to halve the response being measured. A word on the MRT inf: it is the average time that molecules of a dose stay in the body. What is called MRT last is the average time that molecules of a dose stay in the body. The term Tmax denotes the time from dosing to the highest level. By half-life is commonly meant how long it takes for the measured level to halve. The viability is a read-out of living cells in per cent, often relative to untreated cells. Read a high viability as better survival. What is called AUC(0-inf) is the area under the concentration-time curve extrapolated to infinity. A lower AUC(0-inf) goes with less exposure. The AUC(0-t) is exposure summed from dosing to a finite time, without extrapolation to infinity. Usually Cmax stands for the peak of the concentration-time curve.

The record behind these values is article PMC10403511, “DNA-encoded chemical libraries yield non-covalent and non-peptidic SARS-CoV-2 main protease inhibitors” (Communications Chemistry, 2023).
